Measured values: article PMC2781006 (Virology Journal, 2009)
Where two headings read alike, the source gives them in different places.

What was measured:
in vitro [1] = conditions: African green monkey
pseudotyped Nipah (pNiV) = assay: microbe, parasite or virus in culture; format: cell-based, Nipah virus; conditions: read-out: pNiV IC50
Nipah virus [2] = assay: microbe, parasite or virus in culture; format: cell-based; conditions: read-out: NiV IC50
in vitro [3] = conditions: human
VSV (pVSV) = assay: microbe, parasite or virus in culture; format: cell-based, vesicular stomatitis virus; conditions: read-out: pVSV IC50
TNF-α = format: cell-based, African Green Monkey
[4] = test system: Influenza A/swine/Rachaburi/2000 (H1N1); assay: microbe, parasite or virus in culture; format: cell-based, Influenza A virus
[5] = test system: human parainfluenza virus type 3 (HPIV3); assay: microbe, parasite or virus in culture; format: cell-based; conditions: read-out: HPIV3 IC50
Nipah virus [6] = assay: microbe, parasite or virus in culture; format: cell-based; conditions: Henipavirus nipahense
[7] = test system: pseudotyped Hendra (pHeV); assay: microbe, parasite or virus in culture; format: cell-based, Hendra virus; conditions: read-out: pHeV IC50
IL-8 = format: cell-based, African Green Monkey
Hendra virus = assay: microbe, parasite or virus in culture; format: cell-based; conditions: read-out: HeV IC50
influenza A (H1N1) virus = conditions: cited from earlier work
Nipah virus [8] = conditions: hamster, in vivo; cited from earlier work
Henipavirus = conditions: cited from earlier work
[9] = Henipavirus nipahense, HEK-293T, 48 h
[10] = Vesicular stomatitis virus, HEK-293T, 48 h
[11] = Human respirovirus 3, HEK-293T, 24 h
[12] = 1 h, read-out: NiV IC50, co-infection (Co)
[13] = 1 h, read-out: NiV IC50, post-infection (Post)
[14] = 1 h, read-out: NiV IC50, pre-infection (Pre)
[15] = read-out: NiV IC50, cell pre-incubation (Cells)

Row | Molecule | CC50 (in vitro [1]) [nM] | IC50 (pseudotyped Nipah (pNiV); [9]) [nM] | IC50 (Nipah virus [2]; Henipavirus nipahense, Vero) [nM] | CC50 (in vitro [3]) [nM] | IC50 (VSV (pVSV); [10]) [nM] | TNF-α expression, fold change (TNF-α) | inhibition of influenza (H1N1) virus, in words [4] | IC50 [5, 11] [nM] | IC50 (Nipah virus [6]; [12]) [nM] | IC50 (Nipah virus [6]; [13]) [nM] | IC50 (Nipah virus [6]; [14]) [nM] | IC50 (Nipah virus [6]; [15]) [nM] | IC50 ([7]; Hendra virus, HEK-293T, 48 h) [nM] | IL-8 expression, fold change (IL-8) | IC50 (Hendra virus; Henipavirus hendraense, Vero) [nM] | Influenza IC50 [4] | other results
1 | CN1C(=O)[C@]23CC4=CC=C[C@H](O)[C@H]4N2C(=O)[C@@]1(CO)SS3 [Gliotoxin, gliotoxin] | 4900 | 100 | 149 | 1610 | 232 | suppressed | dose-dependant inhibition | 527 | 468 | 610 | 1170 | 487 | 366 | two fold | 579 |  | IC50 ([4]; Influenza A virus, H1N1, Vero, in Sus scrofa, 24 h, read-out: Influenza IC50): 13800 nM
2 | CN(C)c1ccc(C(=C2C=CC(=[N+](C)C)C=C2)c2ccc(N(C)C)cc2)cc1 [Gentian Violet, gentian violet] | 5860 | 61 | 525 | 2830 | 268 |  | did not observe clear inhibition | 860 | 4980 | 3950 | 7380 | 587 | 0.3 | two fold | 2680 | DNC^a | residual viable count of influenza virus, 30 min (influenza A (H1N1) virus): below three logs; residual viable count of influenza virus, 60 min (influenza A (H1N1) virus): below five logs
3 | poly(I)-poly(C12U) |  |  |  |  |  |  |  |  |  |  |  |  |  |  |  |  | prevention of mortality (Nipah virus [8]): five of six animals
4 | CCN(CC)CCCC(C)Nc1ccnc2cc(Cl)ccc12 (centres unmarked) [chloroquine] |  |  |  |  |  |  |  |  |  |  |  |  |  |  |  |  | anti Henipavirus effects in vivo (Henipavirus): no anti Henipavirus effects
5 | brilliant green |  |  |  |  |  | 15 fold | did not observe antiviral efficacy |  |  |  |  |  |  | 20 fold |  | DNC^a | IC50 (pseudotyped Nipah (pNiV)): 42 nM; CC50 (Vero cells): 4670 nM; IC50 (Nipah virus [2]): 218 nM; IC50 (VSV (pVSV)): 15 nM; IC50 [5]: 248 nM; CC50 (293T cells): 861 nM; IC50 [7]: 34 nM; IC50 (Hendra virus): 778 nM
6 | NC(=O)c1ncn([C@@H]2O[C@H](CO)[C@@H](O)[C@H]2O)n1 [Ribavirin, ribavirin] | 150000 |  | 3900 |  |  |  |  |  |  |  |  |  |  |  | 2240 |  | 
